Molecules are shown by their SMILES.

The subject of the first assay is human mixed lymphocyte reaction (MLR). Nature of the assay: human mixed lymphocyte reaction (MLR) assay (immunosuppressant activity). The settings on record: Lymphocyte, Table 1. It counts as cell-based. As for the experimental part: The immunosuppressant activity of the compounds of the present invention was determined using the human mixed lymphocyte reaction (MLR) assay described by Kino, T. et al. in Transplantation Proceedings, XIX(5):36-39,Suppl.
Broadly, the IC50 is the concentration that gives 50% inhibition. The compound `CC[C@@H]1/C=C(\C)C[C@H](C)C[C@H](OC)[C@H]2O[C@@](O)(C(=O)C(=O)N3CCCC[C@H]3C(=O)O[C@H](/C(C)=C/[C@@H]3CC[C@@H](O)[C@H](OC)C3)[C@H](C)C(N3CCN(Cc4ccccc4)CC3)CC1=O)[C@H](C)C[C@@H]2OC` (stereo partly drawn) [Example 16] came in with an IC50 of 191 nM. Turning to `CC[C@@H]1/C=C(\C)C[C@H](C)C[C@H](OC)[C@H]2O[C@@](O)(C(=O)C(=O)N3CCCC[C@H]3C(=O)O[C@H](/C(C)=C/[C@@H]3CC[C@@H](O)[C@H](OC)C3)[C@H](C)C(=O)CC1=O)[C@H](C)C[C@@H]2OC` [Example 7], the IC50 is 113 nM. The same measure, in the same setting: with `CC[C@@H]1/C=C(\C)C[C@H](C)C[C@H](OC)[C@H]2O[C@@](O)(C(=O)C(=O)N3CCCC[C@H]3C(=O)O[C@H](/C(C)=C/[C@@H]3CC[C@@H](O)[C@H](OC)C3)[C@H](C)C(N3CCN(C)CC3)CC1=O)[C@H](C)C[C@@H]2OC` (stereo partly drawn) [Example 17] the figure was 47.4 nM; with `CC[C@@H]1/C=C(\C)C[C@H](C)C[C@H](OC)[C@H]2O[C@@](O)(C(=O)C(=O)N3CCCC[C@H]3C(=O)O[C@H](/C(C)=C/[C@@H]3CC[C@@H](O)[C@H](OC)C3)[C@H](C)C(N3CCNCC3)CC1=O)[C@H](C)C[C@@H]2OC` (stereo partly drawn) [Example 27], 521 nM. The same measure, in the same setting: with `CC[C@@H]1/C=C(\C)C[C@H](C)C[C@H](OC)[C@H]2O[C@@](O)(C(=O)C(=O)N3CCCC[C@H]3C(=O)O[C@H](/C(C)=C/[C@@H]3CCC(=O)[C@H](OC)C3)[C@H](C)[C@@H](O)CC1=O)[C@H](C)C[C@@H]2OC` [Example 4] the figure was 0.4 nM. The same measure, in the same setting: with `CC[C@@H]1/C=C(\C)C(O)[C@H](C)C[C@H](OC)[C@H]2O[C@@](O)(C(=O)C(=O)N3CCCC[C@H]3C(=O)O[C@H](/C(C)=C/[C@@H]3CC[C@@H](OC(=O)CI)[C@H](OC)C3)[C@H](C)[C@@H](O)CC1=O)[C@H](C)C[C@@H]2OC` (stereo partly drawn) [Example 26] the figure was 125 nM; with `CC[C@@H]1/C=C(\C)C[C@H](C)C[C@H](OC)[C@H]2O[C@@](O)(C(=O)C(=O)N3CCCC[C@H]3C(=O)O[C@H](/C(C)=C/[C@@H]3CC[C@@H](O)[C@H](OC)C3)[C@H](C)C=CC1=O)[C@H](C)C[C@@H]2OC` [Example 3], 80 nM. Compound `CC[C@@H]1/C=C(\C)C[C@H](C)C[C@H](OC)[C@H]2O[C@@](O)(C(=O)C(=O)N3CCCC[C@H]3C(=O)O[C@H](/C(C)=C/[C@@H]3CC[C@@H](OC(=O)CI)[C@H](OC)C3)[C@H](C)[C@@H](O)CC1=O)[C@H](C)C[C@@H]2OC` [Example 23] had an IC50 of 1.4 nM.

In turn, `CC[C@@H]1/C=C(\C)C(O)[C@H](C)C[C@H](OC)[C@H]2O[C@@](O)(C(=O)C(=O)N3CCCC[C@H]3C(=O)O[C@H](/C(C)=C/[C@@H]3CC[C@@H](O)[C@H](OC)C3)[C@H](C)[C@@H](OC(=O)CI)CC1=O)[C@H](C)C[C@@H]2OC` (stereo partly drawn) [Example 25] gave an IC50 of 203 nM. The same measure, in the same setting: with `CC[C@@H]1/C=C(\C)C[C@H](C)C[C@H](OC)[C@H]2O[C@@](O)(C(=O)C(=O)N3CCCC[C@H]3C(=O)O[C@H](/C(C)=C/[C@@H]3CC[C@@H](O)[C@H](OC)C3)[C@H](C)C(N3CCN(c4ccccc4)CC3)CC1=O)[C@H](C)C[C@@H]2OC` (stereo partly drawn) [Example 18] the figure was 119 nM; with `CC[C@@H]1/C=C(\C)C[C@H](C)C[C@H](OC)[C@H]2O[C@@](O)(C(=O)C(=O)N3CCCC[C@H]3C(=O)O[C@H](/C(C)=C/[C@@H]3CC[C@@H](O)[C@H](OC)C3)[C@H](C)c3cc1nn3CCO)[C@H](C)C[C@@H]2OC` [Example 8], 380 nM. On the same count and under the same terms, with `CC[C@@H]1/C=C(\C)C[C@H](C)C[C@H](OC)[C@H]2O[C@@](O)(C(=O)C(=O)N3CCCC[C@H]3C(=O)O[C@H](/C(C)=C/[C@@H]3CC[C@@H](O)[C@H](OC)C3)[C@H](C)[C@@H](OC(=O)CI)CC1=O)[C@H](C)C[C@@H]2OC` [Example 21] the figure was 9.3 nM; with `CC[C@@H]1/C=C(\C)C[C@H](C)C[C@H](OC)[C@H]2O[C@@](O)(C(=O)C(=O)N3CCCC[C@H]3C(=O)O[C@H](/C(C)=C/[C@@H]3CC[C@@H](OC(=N)C(Cl)(Cl)Cl)[C@H](OC)C3)[C@H](C)[C@@H](O)CC1=O)[C@H](C)C[C@@H]2OC` [Example 9], 0.02 nM; with `CC[C@@H]1/C=C(\C)C[C@H](C)C[C@H](OC)[C@H]2O[C@@](O)(C(=O)C(=O)N3CCCC[C@H]3C(=O)O[C@H](/C(C)=C/[C@@H]3CC[C@@H](OC(=S)Oc4ccccc4)[C@H](OC)C3)[C@H](C)[C@@H](O)CC1=O)[C@H](C)C[C@@H]2OC` [Example 1], 0.7 nM.

The assay is the same for the next values; noted with them: Table 1.
Compound `CC[C@@H]1/C=C(\C)C[C@H](C)C[C@H](OC)[C@H]2O[C@@](O)(C(=O)C(=O)N3CCCC[C@H]3C(=O)O[C@H](/C(C)=C/[C@@H]3CC[C@@H](OP(=O)(Oc4ccccc4)Oc4ccccc4)[C@H](OC)C3)[C@H](C)[C@@H](OP(=O)(Oc3ccccc3)Oc3ccccc3)CC1=O)[C@H](C)C[C@@H]2OC` [Example 10] gave an IC50 of 11.1 nM.

Values taken from patent publication US5604294A, “Macrocyclic immunomodulators” (priority 1994, dated 1997).
